Several values for one entry are separate records, joined by “and”; a condition that tells them apart may be missing. Identical values can stand only once. Like-named read-outs stand apart in the source and are kept apart here.
Experiments:
[1] = system: HDF, MeWo and A375 cell lines; experiment: (Photo)cytotoxicity MTT assay, statements made for all cell lines; format: cell-based, human; conditions: Homo sapiens, light or radiation study; irradiation 643 nm, with or without CoCl2; read-out: IC50 in all the tested cells
Procedure: (§1) For (photo)cytotoxicity assays, stock solutions of porphyrins were prepared in DMSO and dissolved in DMEM to the final concentrations. The porphyrin incubation time was 6h. Irradiation of the cells was with red light (λ = 643 nm) for 30 min (light dose, 3.6 J/cm^2). Nonirradiated cells were used to test the dark toxicity. All measurements were performed in three individual experiments, and the results are shown as the proliferation (%) of the cells and were calculated as IC50 values.
(§2) The cytotoxicity of (oxidopyridyl)porphyrins was assessed by an MTT assay on the HDF, MeWo and A375 cell lines after 6 h of incubation with porphyrins, without irradiation, or after 30 min of irradiation with red light (λ = 643 nm), and under conditions of normoxia or hypoxia. To induce hypoxia, 100 µM of CoCl2 was added at least two hours before the porphyrins. […] Oxygen is also one of the substrates for the activity of prolyl hydroxylases; therefore, in both cases, the result is the blockage of hydroxylation of HIF-1α and, consequently, its increase and stabilisation, which, in the case of CoCl2-induced hypoxia, can be maintained for several hours.

[2] = Fluorescence spectra and fluorescence quantum yield in MeOH; format: physicochemical
Procedure: (§3) The absorption spectra of (oxidopyridyl)porphyrins were recorded in HPLC grade MeOH on a Cary UV 60 (Agilent Technologies, Santa Clara, CA, USA), in a wavelength range of 300–700 nm. The fluorescence spectra in HPLC grade MeOH were recorded on a Cary Eclipse (Agilent Technologies) in a wavelength range of 500–800 nm after excitation at the Soret band wavelength (λ ~ 420 nm). The slits of the spectrometer were set to a bandpass of 5 nm for the excitation and 5 nm for the emission. To calculate the fluorescence quantum yields, the measurements were conducted on an FS5 Edinburgh Instruments spectrometer. Prior to taking the measurements, the solutions were purged with high-purity N2 for at least 15 min. The absorbance of the solutions was set to A < 0.1 at 405 nm and 550 nm, which settings were used for the excitation process. Emission was recorded from 550 to 800 nm, with slits set to the bandpass corresponding to 2 nm for the excitation, and 3 nm for the emission. Fluorescence quantum yield (ΦFL) was calculated in comparison to the tetraphenylporphyrin (TPP; ΦFL = 0.11 [23]) as a standard, according to Equation (S1) and following an equation previously described elsewhere.

[3] = Fluorescence decay by time-correlated single-photon counting (TC-SPC); format: physicochemical; conditions: MeOH, N2, λex 405 nm
Procedure: Time-correlated single-photon counting (TC-SPC) was used to obtain information about fluorescence decays. All measurements were performed on an FS5 Edinburgh Instruments device with a pulsed laser at 405 nm wavelength, which was used for the excitation process (pulse duration 60 ps). Fluorescence signals were monitored at 660 nm over 1023 channels, with a time increment of ≈49 ps/channel. Porphyrins were dissolved in MeOH (HPLC grade), with the absorbance adjusted to 0.1 a.u. at the excitation wavelength, and the solution was degassed with N2 for 15 min before the measurements were taken. All the decays were collected until they reached 3000 counts in the peak channel. A scattering solution, a silica gel suspension in H2O, was used to obtain the instrument response function (IRF). The histograms were analysed using a nonlinear least-squares deconvolution method via the software implemented with the instrument.

[4] = UV-Vis absorption spectra in MeOH; format: physicochemical
Procedure: as §3

[5] = Laser flash photolysis (LFP), triplet excited state properties; format: physicochemical; conditions: MeOH
Procedure: Laser flash photolysis (LFP) was performed using an LP980 transient absorption spectrometer (Edinburgh Instruments) equipped with a continuous beam (or pulse mode) Xenon lamp passing through the sample. A nanosecond Nd:YAG laser (Quantel, Q-smart 450, 5 ns pulse duration, 10 Hz, excitation wavelength 355 nm) was then used to excite the sample perpendicular to the lamp beam. The laser beam energy was adjusted to below 5 mJ. The ground state absorbance of the porphyrins in MeOH was adjusted to 0.20–0.25 at 355 nm (the laser excitation wavelength) and the solutions were purged with high-purity N2 for at least 15 min prior to taking the measurements. The samples were prepared for kq determination in an air atmosphere that was N2-purged for 15 min and O2-purged for 15 min before the measurements were taken. The ground state absorption spectra of the samples were also recorded after purging the sample with N2 or O2, and after transient absorption (TAS) measurements were taken to track the differences in every step of the measurement process to ensure that no photoproducts were formed. All measurements were performed at 25 °C in 1 cm quartz cuvettes. Laser flash photolysis was used to measure the kinetics of triplet state depopulation (τT) and triplet-triplet absorption spectra, and to calculate the intersystem crossing quantum yield (ΦISC) and quenching rate constants of triplet excited states by molecular oxygen (kq). To calculate ΦISC, the first step was the calculation of the molar absorption coefficient of the triplet state using the singlet depletion method, completing the first step according to Equation (S2). The ΦISC values were estimated by using a comparative method with TPP (ΦISC = 0.87 in toluene) as the standard. The ΦISC was calculated according to Equation (S3). Triplet excited state lifetimes were determined by fitting the triplet decays to the equation for the mixed first- and second-order decay, as previously described, and the quenching rate constant of a triplet excited state by molecular oxygen was calculated using the Stern–Volmer equation (Equation (S4)).

MeWo = experiment: Photocytotoxicity, MTT assay; format: cell-based, human; conditions: red light 643 nm 30 min; for IC50: Homo sapiens, MeWo, light or radiation study, 6 h incubation
Procedure: as §1, §2

A375 = experiment: Photocytotoxicity, MTT assay; format: cell-based, human; conditions: red light 643 nm 30 min; for IC50: Homo sapiens, A-375, light or radiation study, 6 h incubation
Procedure: as §1, §2

With CCCCCCCCCCCCCCCCCC(=O)Nc1ccc(-c2c3nc(c(-c4ccc[n+]([O-])c4)c4ccc([nH]4)c(-c4ccc[n+]([O-])c4)c4nc(c(-c5ccc[n+]([O-])c5)c5ccc2[nH]5)C=C4)C=C3)cc1 [TOPyP3-C17H35, 5-(4-Octadecanamidophenyl)-10,15,20-tris(1-oxido-3-pyridyl)porphyrin] the IC50 [1] was at most 1000 nM, the Stokes shift [2] was 2 nm and the “ΦFL (fluorescence quantum yield)” value ([2]; N2-purged, TPP as reference) was 0.047 ± 0.002. The “λFL Q(0,0)” value ([2]; excitation at Soret band) was 648 nm, the “λFL Q(0,1)” value ([2]; excitation at Soret band) was 713 nm and the “contribution of τ1 (% of the decay)” value [3] was 1%. For the same molecule, the “contribution of τ2 (% of the decay)” value [3] was 99%, the “τFL, longer decay time τ2” value [3] was 7.82 ± 0.02 ns and 7.82 ns and the “τFL, short decay time τ1” value [3] was 0.57 ± 0.08 ns and 0.57 ns. For the same molecule, the “ε Qx (0-0)” value [4] was 1600 M⁻¹ cm⁻¹, the “ε Qx (1-0)” value [4] was 4500 M⁻¹ cm⁻¹ and the “ε Qy (0-0)” value [4] was 4300 M⁻¹ cm⁻¹. The “ε Qy (1-0)” value [4] was 15000 M⁻¹ cm⁻¹, the “ε Soret (B)” value [4] was 275400 M⁻¹ cm⁻¹ and the “λabs Qx (0-0)” value [4] was 646 nm. For the same molecule, the “λabs Qx (1-0)” value [4] was 587 nm, the “λabs Qy (0-0)” value [4] was 547 nm and the “λabs Qy (1-0)” value [4] was 512 nm. The “λabs Soret (B)” value [4] was 417 nm, the “τT (lifetime of 3PS*)” value [5] was 0.96 ms and the t from transient absorption kinetics at 450 nm ([5]; N2, 355 nm laser excitation, Figure S9 inset) was 987 µs. For the same molecule, the “τT (lifetime of the triplet excited state)” value ([5]; N2-purged, 25 °C) was 960 ± 30 μs, the “kq (O2) (quenching rate constant of the triplet excited state by O2)” value ([5]; Stern–Volmer) was 1.4e+09 M⁻¹ s⁻¹ and the “ΦISC (quantum yield of intersystem crossing)” value ([5]; comparative method with TPP, estimated) was 0.51. The “εT-T (molar absorption coefficient of the triplet state)” value ([5]; singlet depletion method) was 58 300 M^−1cm^−1, the IC50 (MeWo; 3.6 J/cm^2, 100 μM CoCl2 at least 2 h before porphyrin, read-out: IC50 MeWo CoCl2) was 680 ± 190 nM and the IC50 (MeWo; 3.6 J/cm^2, normoxia, read-out: IC50 MeWo No CoCl2) was 660 ± 140 nM. The “SI (IC50 (HDF) / IC50 (melanoma cells)) MeWo 100 µM CoCl2” value (MeWo; CoCl2-induced hypoxia) was 1.6, the “SI (IC50 (HDF) / IC50 (melanoma cells)) MeWo No CoCl2” value (MeWo; normoxia) was 2.0 and the IC50 (A375; 3.6 J/cm^2, 100 μM CoCl2 at least 2 h before porphyrin, read-out: IC50 A375 CoCl2) was 940 ± 150 nM. The IC50 (A375; 3.6 J/cm^2, normoxia, read-out: IC50 A375 No CoCl2) was 770 ± 80 nM, the “SI (IC50 (HDF) / IC50 (melanoma cells)) A375 100 µM CoCl2” value (A375; CoCl2-induced hypoxia) was 1.2 and the “SI (IC50 (HDF) / IC50 (melanoma cells)) A375 No CoCl2” value (A375; normoxia) was 1.7.
